“Also recorded” adds a separate entry of the source.
Columns and labels:
IEC-18 cells = experiment: [Ca2+]i changes in IEC-18 cells; assay type: cell-based, rat; conditions: FIG. 10B: 5 mM denatonium benzoate, vasopressin as positive control
Procedure: (§1) (A) STC-1 cells, grown on cover slips, were washed with a buffer solution (buffer A) consisting of Hanks' balanced salt solution supplemented with 0.03% NaHCO3, 1.3 mM CaCl2, 0.5 mM MgCl2, 0.4 mM MgSO4, and 0.1% BSA. After washing, cells were incubated with […] methyl ester (fura-2/AME) from a stock of 1 mM in DMSO for 30 min at room temperature. Cells were then washed again with buffer A and left at room temperature for an additional 30 min. Each cover slip was placed in a glass cuvette with 2 ml of buffer A, and fluorescence was measured continuously in a Hitachi F-2000 fluorospectrophotometer with excitation wavelength of 340 and 380 nm and an emission wavelength of 510 nm. The bars represent the increase in [Ca^2+]i in response to various concentrations of denatonium benzoate (DB), as indicated. (B) [Ca^2+]i changes in IEC-18 cells, a normal rat intestinal epithelial cell line, after sequential addition of 5 mM denatonium benzoate (DB) followed by 50 nM vasopressin (VP), added as a positive control. (C) [Ca^2+]i changes in Swiss 3T3 cells after sequential addition of 5 mM denatonium benzoate (DB) followed by 10 nM bombesin (Bom), added as a positive control. The changes in [Ca^2+]i in IEC-18 and Swiss 3T3 cells were measured as described above for STC-1 cells.

STC-1 cells [1] = experiment: Ca2+ imaging of individual STC-1 cells (fura 2-AM) after bitter tastants; assay type: cell-based, mouse; conditions: for [Ca2+]i response in STC-1 cells (in words): single cells, FIG. 9 concentrations: PTC 3 mM, 6-PTU 1 mM, caffeine 10 mM, nicotine 10 mM, cycloheximide 50 μM
Procedure: The [Ca^2+]i of individual cells was measured before and after exposure to single concentrations of bitter tastants. Top panel. […] The values in parenthesis are the number of cells analyzed. Lower panels. Individual traces of [Ca^2+], from two cells exposed to denatonium benzoate or cycloheximide.
Due to heterogeneity of the STC-1 cell population, we monitored responses in the intracellular Ca^2+ concentration ([Ca^2+]i) using Ca^2+ imaging of individual cells and tested the effect of several compounds widely used in bitter taste signaling.
The concentrations of denatonium used in these experiments are similar to those used for eliciting second messenger changes and ion channel activity in taste tissues.
Since a low level of mT2R5 expression was also detected in STC-1 cells, we determined if cycloheximide stimulates a [Ca^2+]i response in these cells.

STC-1 cells [2] = experiment: [Ca2+]i in STC-1 cells on cover slips, fura-2 fluorospectrophotometry; assay type: cell-based, mouse; conditions: various concentrations of denatonium benzoate, FIG. 10A
Procedure: as §1

[3] = biological target: T1, chimeric mT2R5 receptors containing the NH2-terminal 39 amino acids of rhodopsin (Mus musculus, UniProt Q9JKT4); conditions: HEK-293 cells; Chandrashekar et al, Cell 100:703-711 (2000); cited from earlier work
T1 construct: host or cells: HEK-293 (heterologous expression)
T1 sequence (Q9JKT4 with tags, fused parts or gaps): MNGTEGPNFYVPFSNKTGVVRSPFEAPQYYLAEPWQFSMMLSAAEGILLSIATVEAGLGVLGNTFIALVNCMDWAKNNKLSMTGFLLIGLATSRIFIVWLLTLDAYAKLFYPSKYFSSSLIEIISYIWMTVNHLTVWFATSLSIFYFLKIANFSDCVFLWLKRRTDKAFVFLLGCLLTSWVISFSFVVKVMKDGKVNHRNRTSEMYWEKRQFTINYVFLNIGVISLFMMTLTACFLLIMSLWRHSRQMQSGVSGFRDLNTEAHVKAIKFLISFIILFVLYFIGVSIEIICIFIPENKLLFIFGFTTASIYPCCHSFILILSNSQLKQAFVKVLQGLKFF

| Structure (SMILES) | [Ca2+]i response in IEC-18 cells (in words) (IEC-18 cells) | [Ca2+]i response in STC-1 cells (in words) (STC-1 cells [1]) | also measured |
| --- | --- | --- | --- |
| CCCc1cc(=O)[nH]c(=S)[nH]1 [6-n-propil-2-thiouracil] | not in other well studied cell lines such as IEC-18 or 3T3 | robust [Ca^2+]i responses; also recorded: promoted rapid [Ca^2+]i responses | – |
| Cn1c(=O)c2c(ncn2C)n(C)c1=O [caffeine] | – | robust [Ca^2+]i responses | – |
| CN1[C@@H]2CC[C@H]1C[C@@H](OC(=O)C(CO)c1ccccc1)C2 (some centres unmarked) [atropine] | – | did not induce any detectable change | – |
| NC(=S)Nc1ccccc1 [phenylthiocarbamide] | not in other well studied cell lines such as IEC-18 or 3T3 | robust [Ca^2+]i responses; also recorded: promoted rapid [Ca^2+]i responses | – |
| O=C(O)/C=C/c1ccc(O)c(O)c1 [caffeic acid] | – | did not induce any detectable change | – |
| CC[N+](CC)(CC(=O)Nc1c(C)cccc1C)Cc1ccccc1 [denatonium benzoate] | not in other well studied cell lines such as IEC-18 or 3T3 | rapid and dose-dependent elevation | increase in [Ca2+]i in STC-1 cells (in words) (STC-1 cells [2]): dose-dependent increase; cells with increase in [Ca2+]i (STC-1 cells [1]; 1 mM, percentage of the STC-1 population): 33%; cells with marked increase in [Ca2+]i (STC-1 cells [1]; 10 mM, percentage of STC-1 cells examined): 97%; [Ca2+]i response in STC-1 cells (in words) (STC-1 cells [1]; listed as denatonium): promoted rapid [Ca^2+]i responses |
| C[C@@H]1C[C@@H]([C@H](O)CC2CC(=O)NC(=O)C2)C(=O)[C@@H](C)C1 [cycloheximide] | not in other well studied cell lines such as IEC-18 or 3T3 | induced oscillatory changes in [Ca^2+]i in a small sub-population of STC-1 cells; also recorded: promoted rapid [Ca^2+]i responses | mT2R5 response, increase in [Ca2+]i (in words) [3]: responds |
| CN1CCCC1c1cccnc1 (centres unmarked) [nicotine] | – | robust [Ca^2+]i responses | – |
